Test results as given in ChEMBL document CHEMBL1201862, “PubChem BioAssay data set” (2004).
The source made the active and inactive calls.

Experiments:
HEK293 = experiment: viability loss in HEK293T cells – cell-based, ATP luminescence, cherry-pick samples, cytotoxicity control, dose response (AID 687005); format: functional; conditions: Homo sapiens;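 also: cells exposed to compound for 48 hours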
[1] = HEK293 Cytotoxicity Assay Measured in Cell-Based System Using Plate Reader - 7071-01_Inhibitor_Dose_CherryPick_Activity_Set2.; format: functional
Vero = experiment: viability loss in Vero cells – cell-based, plate reader, cherry-pick samples, cytotoxicity control, dose response (AID 687020); format: functional; conditions: Chlorocebus sabaeus
Paired box protein Pax-8 = Paired box protein Pax-8 (Homo sapiens, UniProt Q06710); experiment: PAX8 transcriptional activity inhibition in RMG-I – RMG-I cells, luciferase, cherry-pick, dose response (AID 687027); format: functional, cell-based;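 also: luciferase reporter driven by Pax8 target thyroperoxidase promoter measured by SteadyGlo luminescence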
Chain of Paired box protein Pax-8 (Q06710 whole entry): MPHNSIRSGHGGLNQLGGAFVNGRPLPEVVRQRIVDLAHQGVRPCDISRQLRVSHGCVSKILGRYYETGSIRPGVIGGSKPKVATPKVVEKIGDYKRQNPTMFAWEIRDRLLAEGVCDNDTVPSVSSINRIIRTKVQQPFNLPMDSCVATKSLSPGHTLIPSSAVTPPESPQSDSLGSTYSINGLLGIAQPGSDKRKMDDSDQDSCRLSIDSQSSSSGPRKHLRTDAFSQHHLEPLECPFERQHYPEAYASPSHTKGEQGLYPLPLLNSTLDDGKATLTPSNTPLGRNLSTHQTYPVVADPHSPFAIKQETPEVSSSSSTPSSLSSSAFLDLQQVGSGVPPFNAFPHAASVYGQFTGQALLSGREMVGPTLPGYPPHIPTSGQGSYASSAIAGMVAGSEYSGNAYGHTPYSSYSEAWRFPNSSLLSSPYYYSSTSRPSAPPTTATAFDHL

[2] = A2780 cell killing – plate reader, dry powder samples, cytotoxicity control, dose response (AID 743046); format: functional, cell-based
[3] = OVCAR-3 cell viability loss – plate reader, dry powder samples, PAX8 inhibitor project, dose response (AID 743044); format: functional, cell-based
[4] = IGROV1 cell killing – plate reader, dry powder samples, PAX8 inhibitor project, dose response (AID 743043); format: functional, cell-based; conditions: IGROV-1
[5] = OVCAR8 cell viability loss – plate reader, dry powder samples, PAX8 project, dose response (AID 743197); format: functional, cell-based; conditions: OVCAR-8
[6] = cytotoxicity in HEK293 background cells – cell-based, dry powder, set 2, counter-screen for EBV LMP1 inhibitor project, dose response (AID 624374); format: functional
[7] = viability loss in HEK293 kidney cells – cell-based, cherry-picks, set 5, cytotoxicity control, dose response (AID 1053117); format: functional
[8] = A549 cell cytotoxicity, dose response, cytotoxicity control, plate reader, cherry-pick, antagonist series (AID 743412); format: functional, cell-based
[9] = inhibition of bursicon-driven LGR2 cAMP signaling – cell-based, HEK293, CRE-luciferase reporter, cherry pick, dose response (AID 743342); format: functional
[10] = blockade of melanocortin 4 receptor signaling – cell-based, plate reader, cherry pick, counter-screen for LGR2 antagonist project, dose response (AID 743444); format: functional;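 also: transfected HEK 293 cells stimulated with alpha-MSH peptide; potency of inhibitors of the alpha-MSH evoked signal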
[11] = potency of ADAM10 substrate cleavage blockers – biochemical, QFRET, dose response (AID 743254);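 also: ADAM10 enzyme with the DM2 quenched FRET peptide as substrate; EDANS fluorescence gain as the protease cuts the substrate; inhibitor potency against ADAM10 proteolytic activity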
[12] = molecular target: Disintegrin and metalloproteinase domain-containing protein 17 (Homo sapiens, UniProt P78536); experiment: inhibition of ADAM17 substrate cleavage – biochemical, quenched FRET substrate, counter-screen for ADAM10 exosite inhibitor project, dose response (AID 743253)
Chain of Disintegrin and metalloproteinase domain-containing protein 17 (P78536 whole entry, the tested form may be a part): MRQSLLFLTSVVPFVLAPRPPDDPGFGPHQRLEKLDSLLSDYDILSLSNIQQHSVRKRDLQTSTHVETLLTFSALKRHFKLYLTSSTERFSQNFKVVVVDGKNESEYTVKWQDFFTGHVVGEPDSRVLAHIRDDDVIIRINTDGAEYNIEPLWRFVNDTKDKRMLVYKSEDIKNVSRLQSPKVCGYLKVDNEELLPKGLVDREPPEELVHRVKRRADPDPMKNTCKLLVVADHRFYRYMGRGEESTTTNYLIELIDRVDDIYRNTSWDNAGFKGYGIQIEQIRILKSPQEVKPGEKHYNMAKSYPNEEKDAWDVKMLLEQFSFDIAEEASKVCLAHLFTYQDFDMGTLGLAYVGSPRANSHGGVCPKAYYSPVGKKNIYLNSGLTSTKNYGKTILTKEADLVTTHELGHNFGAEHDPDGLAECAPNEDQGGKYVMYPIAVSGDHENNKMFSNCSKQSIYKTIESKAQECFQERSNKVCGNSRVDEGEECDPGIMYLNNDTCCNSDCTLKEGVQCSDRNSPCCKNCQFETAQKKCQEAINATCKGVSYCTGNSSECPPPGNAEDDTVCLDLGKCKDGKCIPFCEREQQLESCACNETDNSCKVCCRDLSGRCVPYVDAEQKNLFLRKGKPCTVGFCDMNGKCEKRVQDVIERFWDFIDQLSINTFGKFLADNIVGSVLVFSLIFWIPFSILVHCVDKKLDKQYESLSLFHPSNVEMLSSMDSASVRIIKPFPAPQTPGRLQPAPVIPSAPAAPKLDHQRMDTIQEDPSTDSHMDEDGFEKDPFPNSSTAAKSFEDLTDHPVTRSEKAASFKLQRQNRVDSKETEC

[13] = anti-trypanosomal activity in BESM host cells – imaging, CA-I/72 strain, bovine embryo skeletal muscle, dry powder, dose response (AID 651885); format: functional, cell-based
[14] = molecular target: T1, Oxysterols receptor LXR-beta (Homo sapiens, UniProt P55055); format: functional, cell-based;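 also: agonist activity at LXR measured by a cell-based luminescence readout across a dose range, run as a counterscreen for daf-12 agonists; HEK293 cells with Gal4-LXR fusion and GAL4-driven luciferase reporter; potency for activation of Gal4-LXR reporter so compounds are agonists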
T1 sequence (P55055 whole entry): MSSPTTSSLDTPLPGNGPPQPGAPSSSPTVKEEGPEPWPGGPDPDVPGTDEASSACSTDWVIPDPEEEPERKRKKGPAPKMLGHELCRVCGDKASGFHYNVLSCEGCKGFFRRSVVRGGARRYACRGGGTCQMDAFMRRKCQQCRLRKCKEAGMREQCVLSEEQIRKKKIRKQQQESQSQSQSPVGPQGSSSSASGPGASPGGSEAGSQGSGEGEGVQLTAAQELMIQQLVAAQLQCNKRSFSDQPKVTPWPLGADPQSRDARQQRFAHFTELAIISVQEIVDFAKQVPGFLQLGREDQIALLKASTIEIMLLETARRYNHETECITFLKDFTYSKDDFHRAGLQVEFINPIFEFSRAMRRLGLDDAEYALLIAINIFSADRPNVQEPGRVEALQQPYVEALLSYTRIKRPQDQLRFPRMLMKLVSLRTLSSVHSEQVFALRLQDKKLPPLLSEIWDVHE

[15] = inhibition of ARNT PAS-B/TACC3 complex formation – biochemical, AlphaScreen, cherry-picked samples, confirmation (AID 651703); format: functional, Homo sapiens;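 also: His-tagged ARNT PAS-B domain paired with GST-TACC3 E629A dimer coactivator fragment; potency of inhibitors that break up the complex and lower AlphaScreen signal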
[16] = luciferase reporter signal suppression in cells – H4 neuroglioma cells, luminescence, dose response (AID 1990); format: functional, cell-based
[17] = Luminescence Cell-Based Dose Response HTS to Identify Inhibitors of 5'UTR Stem-Loop Driven Prion Protein mRNA Translation in H4 Neuroglioblastoma Cells. [Related pubchem assays: 1827 (Project Summary), 1813 (Primary HTS)]; format: functional
[18] = alpha-synuclein stem-loop luciferase translation blockers – H4 neuroglioma cells, luminescence, confirmation (AID 1988); format: functional, cell-based
[19] = bead-based luminescence quenchers, dual-tagged ARNT – biochemical, AlphaScreen, cherry-pick, artefact control for ARNT-TACC3 interaction inhibitor project, dose response (AID 651705); format: functional;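 also: AlphaScreen bead proximity signal that flags compounds interfering with the detection technology; potency reflects signal decrease which marks the compound as an assay artifact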
[20] = activation of miR-122 Renilla sensor silencing – cell-based, Huh7 psiCHECK-miR122, Renilla luciferase, cherry-picked, dose response (AID 651956); format: functional;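 also: huh7 hepatoma cells stably carrying a psiCHECK-2 miR-122 sensor plasmid; renilla luciferase signal reporting endogenous miR-122 activity after 48 h compound exposure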
[21] = general mammalian cell viability loss – activator set, cherry-pick, cytotoxicity control for miR-122 modulator project, dose response (AID 720690); format: functional, cell-based;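 also: HEK293T human cells scored for general mammalian cytotoxicity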

SMILES: O=C(N[C@@H]1CC[C@@H](CCn2cc(-c3ccccc3)nn2)O[C@H]1CO)c1cnccn1
- AC50 (HEK293): 21.8 µM (active)
- AC50 [1]: 21.8 µM (active)

SMILES: COc1ccccc1-c1noc2c1C(=O)N(Cc1cn(Cc3ccccc3)nn1)CC2
- AC50 (Vero): 32.2 µM (active)

SMILES: COc1ccc(S(=O)(=O)N(C)C[C@H]2Oc3cc(C#CC4CCCC4)ccc3S(=O)(=O)N([C@@H](C)CO)C[C@@H]2C)cc1
- AC50 (Paired box protein Pax-8): 6.49 µM (active)
- AC50 [2]: 8.96 µM (active)
- AC50 [3]: 21.4 µM (active)
- AC50 [4]: 57.4 µM (active)
- AC50 [5]: 31.3 µM (active)

SMILES: O=C(Cc1ccccn1)NCC[C@@H]1CC[C@@H](NC(=O)Nc2ccc(Cl)cc2)[C@@H](CO)O1
- AbsAC35 [6]: 83.87 µM

SMILES: COc1cccc(-c2ccc3c(c2)[C@H]2[C@H](CCN2S(=O)(=O)c2cccc(OC)c2)[C@H](CO)N3)c1
- AC50 [7]: 26.9 µM (active)

SMILES: C[C@H](CO)N1C[C@H](C)[C@H](CN(C)C(=O)Nc2cccc3ccccc23)OCCCC[C@H](C)Oc2ccc(NC(=O)c3ccccc3)cc2C1=O
- AC50 [8]: 48 µM (active)
- AC50 [9]: 4.88 µM (active)
- AC50 [10]: 52.5 µM (active)

SMILES: Nc1[nH]c(C(=O)c2ccccc2)c(-c2cccc(C(F)(F)F)c2)c1C(=O)NCCc1c[nH]c2ccccc12
- IC50 [11]: > 7.73 µM (active)
- IC50 [12]: > 69.6 µM (inactive)

SMILES: C[C@H]1CN([C@@H](C)CO)C(=O)c2cccc(NC(=O)c3ccncc3)c2O[C@@H]1CN(C)Cc1ccc(C(=O)O)cc1
- IC50 [13]: > 20 µM (inactive)

SMILES: Cc1ccc(/C=N/NC(=O)c2ccccn2)s1
- EC50 [14]: > 67.6 µM (inactive)

SMILES: O=c1oc2ccccc2c(O)c1/C=N/Cc1ccccn1
- AC50 [15]: 109 µM (active)

SMILES: C(=N\Nc1ccc2nncn2n1)/c1ccccn1
- EC50 [16]: > 120 µM (not active)
- EC50 [17]: 11.8 µM (active)
- EC50 [18]: > 120 µM (not active)
- AC50 [19]: 110 µM (active)

SMILES: CC(=O)/N=c1\scc(-c2ccccc2)n1-c1cccc(O)c1
- AC50 [20]: 25.1 µM (active)
- AC50 [21]: 44.8 µM (active)
